Consider five compounds from ChEMBL document CHEMBL5050844 (2019).

Experiment [1] is described as follows: Induction of anti-CD3 antibodies-stimulated human exhausted CD8+ T cell activation assessed fold increase in CTLA4 expression measured by flow cytometry analysis. Further: reference of the scale not given here. The format is functional, T cell line. (A flow cytometer gives signals particle by particle.)
Experiment [2] in a line: Induction of anti-CD3/CD28 antibodies-stimulated human CD4+ T cell activation at 1.11 uM assessed fold increase in CD69 expression measured by flow cytometry analysis. The format is functional, T cell line.
A short description of experiment [3]: Induction of anti-CD3 antibodies-stimulated human CD8+ T cell activation at 10 uM assessed fold increase in cell proliferation measured by flow cytometry analysis. Further: reference of the scale not given here. The format is functional, T cell line.
Experiment [4] in a line: Induction of anti-CD3/CD28 antibodies-stimulated human anergic T cell activation at 0.37 uM assessed fold increase in IFN-gamma secretion measured by ELISA assay. The format is functional, T cell line. (In general: In an ELISA, binding on a coated surface is turned into a signal by an enzyme label.)
Experiment [5] is described as follows: Induction of anti-CD3/CD28 antibodies-stimulated human T cell activation at 1 uM assessed fold increase in IL-2 secretion measured by ELISA assay. The format is functional, T cell line.
Experiment [6] is described as follows: Induction of anti-CD3 antibodies-stimulated human CD8+ T cell activation at 1.11 uM assessed fold increase in cell proliferation measured by flow cytometry analysis. Further: reference of the scale not given here. The format is functional, T cell line.
The nature of experiment [7]: Induction of activation of human CD56+ CD3- NK cells co-cultured with human K562 cells in 1:1 ratio and assessed as increase in TNF-alpha secretion at 10 uM measured by ELISA assay. The format is functional, Natural killer cell.
The nature of experiment [8]: Induction of anti-CD3 antibodies-stimulated human T cell activation at 1.11 uM assessed fold increase in TNF-alpha secretion measured by ELISA assay. Further: reference of the scale not given here. The format is functional, T cell line.
A short description of experiment [9]: Induction of activation of human CD56+ CD3- NK cells co-cultured with human K562 cells in 1:1 ratio and assessed as increase in IFN-gamma secretion at 2.5 uM measured by ELISA assay. The format is functional, Natural killer cell.
The nature of experiment [10]: Induction of anti-CD3/CD28 antibodies-stimulated human CD8+ T cell activation at 10 uM assessed fold increase in CD69 expression measured by flow cytometry analysis. The format is functional, T cell line.
Experiment [11] can be described thus: Induction of anti-CD3 antibodies-stimulated human T cell activation at 10 uM assessed fold increase in TNF-alpha secretion measured by ELISA assay. Further: reference of the scale not given here. The format is functional, T cell line.
Experiment [12] is described as follows: Induction of anti-CD3/CD28 antibodies-stimulated human T cell activation at 1.11 uM assessed fold increase in TNF-alpha secretion measured by ELISA assay. The format is functional, T cell line.
The nature of experiment [13]: Induction of anti-CD3/CD28 antibodies-stimulated human T cell activation at 10 uM assessed fold increase in TNF-alpha secretion measured by ELISA assay. The format is functional, T cell line.
Experiment [14] can be described thus: Induction of anti-CD3/CD28 antibodies-stimulated human T cell activation at 1.11 uM assessed fold increase in GM-CSF secretion measured by ELISA assay. The format is functional, T cell line.

Each structure is given as a SMILES string.

As for `C[C@H](Cc1nncn1C)c1cccc(NC(=O)c2n[nH]c3c2CCC3)c1`, the “fold change (FC)” value is reported as “<=1.4” in [1]; 1.401 in experiment [2]; 2.01 in experiment [3]; “<=2.5” in experiment [4]; 1.01 in experiment [5]; over 4 in [6]. In addition, the “fold change (FC)” value in [7] is 1.01; in experiment [8], “<=1.5”; in experiment [9], “<=1”; in experiment [10], 1.201; in experiment [11], “<=1.5”; in [12], “<=1.5”. The entries for the “fold change (FC)” value in experiment [13] and in [14] were 2.01 and “<=1.5”, respectively.

For `C[C@H](Sc1nncn1C)c1cccc(NC(=O)c2cc(C(=O)N3CC[C@H](O)C3)ccn2)c1`, the “fold change (FC)” value in [1] is given as “<=1.4”; in [2], 1.401; in [3], over 4; in experiment [4], “<=2.5”; in experiment [5] it was “<=1”; in [6], over 4. The “fold change (FC)” value in experiment [7] is listed as “<=1”; in [8] it was 1.51; in experiment [9] it was “<=1”; in experiment [10], 1.201; in experiment [11] it was 2.01; in experiment [12], 2.01. Also, the “fold change (FC)” value in [13] and in experiment [14] was 2.01 each time.

Turning to `Cc1cc2c(c(C3CC3)n1)CN(c1cccc([C@H](C)Cc3nncn3C)c1)C2=O`, the “fold change (FC)” value in experiment [1] is “<=1.4”; in experiment [2] it was “<=1.2”; in experiment [3], 2.01; in [4], “<=2.5”; in experiment [5], 1.01; in [6] it was “<=2”. Further, the “fold change (FC)” value was 1.01 in experiment [7]; “<=1.5” in experiment [8]; 1.01 in experiment [9]; 1.201 in [10]; “<=1.5” in [11]; “<=1.5” in experiment [12]. Besides, the “fold change (FC)” value was 2.01 in [13] and “<=1.5” in [14].

`C[C@H](Cc1nncn1C)c1cccc(NC(=O)c2cccc(CCO)n2)c1`: the “fold change (FC)” value in experiment [1] is reported as “<=1.4”; in experiment [2], “<=1.2”; in experiment [3], “<=2”; in experiment [4] it was “<=2.5”; in experiment [5], 1.01; in experiment [6], “<=2”. For the same compound, the “fold change (FC)” value was 1.01 in experiment [7]; “<=1.5” in experiment [8]; 1.01 in experiment [9]; “<=1.2” in [10]; “<=1.5” in experiment [11]; “<=1.5” in experiment [12]. Besides, the “fold change (FC)” value in experiment [13] is recorded as 1.51; in [14], “<=1.5”.

As to `Cn1cnnc1[C@@H]1C[C@@H]1c1cccc(N2Cc3c(ccnc3C(F)(F)F)C2=O)c1`, the “fold change (FC)” value in [1] is given as “<=1.4”; in [2], “<=1.2”; in experiment [3], “<=2”; in experiment [4], “<=2.5”; in experiment [5], 1.01; in experiment [6], “<=2”. For the same compound, the “fold change (FC)” value was 1.01 in [7]; “<=1.5” in experiment [8]; “<=1” in [9]; 1.201 in [10]; 1.51 in [11]; “<=1.5” in [12]. Further, the “fold change (FC)” value is listed as 2.01 in experiment [13] and “<=1.5” in [14].
